In patent US8912355B2, “Linoleic phospholipids and uses thereof for inhibiting inflammatory and neurodegenerative processes” (University of Ottawa Heart Institute, priority 2009, dated 2014):
Entries after “also recorded” stand apart in the source; their conditions may differ.

How the values were obtained:
IκBα [1] = assay: TNFα-induced IκBα phosphorylation and degradation in SH-SY5Y cells, Western blot; format: cell-based, human; conditions: TNFα 10 ng/ml
Protocol: (§1) Western Blot Analysis—After incubation with drugs for the indicated times and doses, cells were washed twice with ice-cold PBS-T on ice. Cells were lysed by adding buffer [NaF 1 mmol/L, NaCl 5 mmol/L, EDTA 1 mmol/L, NP40 1 mmol/L (Roche Diagnostics, Indianapolis, Ind.), HEPES 10 mmol/L, pepstatin A 1 mg/mL, leupeptin 1 mg/mL, aprotinin 1 mg/mL, Na3VO4 1 mmol/L, and PMSF 1 mmol/L] and total protein was extracted. An equal amount of cell proteins were separated by 12% SDS-PAGE and were analyzed by Western blot using specific antibodies to TNFα, Aβ, APP, phospho-ERK1/2, ERK1/2, phospho-tau, tau, phospho-IκBα, IκBα, phospho-NF-κB and NF-κB. […] Band intensity was analyzed with the Alpha-Innotech Fluor Chem™ HD Imager.

TLR-4 = assay: LPS-induced TLR-4 expression in HepG2 cells, Western blot; format: cell-based, human; conditions: DLPC 12 μmol/L 30 min, LPS 5 μg/ml, 24 h
Protocol: (§2) HepG2 cells were pre-incubated with DLPC (12 μmol/L) for 30 min. and then incubated with LPS (5 μg/ml) for 24 h in DMEM serum-depleted media. Cell lysates were analyzed for TLR-4 expression by Western blot. Values are presented relative to β-actin and are expressed as mean±SEM for 3 replicate experiments. *P<0.05 vs LPS alone.
(§3) Western Blot Analysis—After incubation with drugs for the indicated times and doses, cells were washed twice with ice-cold PBS-T on ice. Cells were lysed by adding buffer [NaF 1 mmol/L, NaCl 5 mmol/L, EDTA 1 mmol/L, NP40 1 mmol/L (Roche Diagnostics, Indianapolis, Ind.), HEPES 10 mmol/L, pepstatin A 1 mg/mL, leupeptin 1 mg/mL, aprotinin 1 mg/mL, Na3VO4 1 mmol/L, and PMSF 1 mmol/L] and total protein was extracted. An equal amount of cell proteins were separated by 12% SDS-PAGE and were analyzed by Western blot using specific antibodies to TNFα, Aβ, APP, phospho-ERK1/2, ERK1/2, phospho-tau, tau, phospho-IκBα, IκBα, phospho-NF-κB and NF-κB. Blots for the similar experiments were also subjected to β-actin for a loading control. Band intensity was analyzed with the Alpha-Innotech Fluor Chem™ HD Imager.

tau = assay: Agonist-induced tau phosphorylation (AT8) in SH-SY5Y cells, Western blot; format: cell-based, human
Protocol: (§4) Cells and Cell Culture—Human neuroblastoma (SH-SY5Y) cells were obtained from American Type Cell Culture (ATCC Number CRL-2266; Manassas, Va., USA). SH-SY5Y was cultured and maintained in F12:DMEM (1:1, v/v) media condition with 10% FBS and 1% penicillin/streptomycin in a 37° C./5% CO2 exchange condition. Passages 3-10 were used in the present study and confluent cells were subjected to stimulation with drugs for indicated times under serum-starved conditions.
(§5) Preparation of Phospholipid Vesicles—Phospholipid Vesicles in Phosphate-Buffered saline (PBS; 1 mg/mL) were prepared by sonication as previously described (8). Briefly, pure dilinoeoylphosphatidylcholine (DLPC) in chloroform was dried down under N2 and 1 mL of PBS was added by vortexing. The mix was then sonicated (Branson sonicator set at 100% duty cycle and 10% power) for 1 min. The sonicated preparation was incubated for 30 min at 37° C. in a water bath, and samples were resonicated for 5 min at 95% duty cycle and 10% power and filtered before use.
as §3
The effect of pro-inflammatory and oxidative stress agonists on tau phosphorylation were also evaluated in SH-SY5Y cells.

ERK1/2 = assay: TNFα- or H2O2-induced ERK1/2 (MAPK) phosphorylation in SH-SY5Y cells, Western blot; format: cell-based, human; conditions: for TNFα-induced ERK1/2 phosphorylation: TNFα 10 ng/ml
Protocol: as §4, §5, §3
Experiments were undertaken to determine if DLPC can block a tumor necrosis factor (TNFα) activation of MAPK in neuroblastoma cells. […]

NF-κB [2] = assay: LPS- or TNFα-induced NF-κB phosphorylation in HepG2 cells, Western blot; format: cell-based, human; conditions: for TNFα-induced activation of NF-κB (p-NF-κB): DLPC 12 μmol/L, DOPC 12 μmol/L or LA 25 μmol/L for 30 min, TNFα 10 ng/ml, 5 min
Protocol: HepG2 cells were pre-incubated with DLPC (12 μM) for 30 min. and then incubated with LPS (5 μg/ml) for 24 h in DMEM serum-depleted media. Phospho-IκBα and phospho-NF-kB (p-IκBα and p-NF-κB) expression were analyzed by Western blot.
as §1

[3] = tested on: amyloid precursor protein (APP); assay: Basal amyloid precursor protein expression in SH-SY5Y cells, Western blot; format: cell-based, human; conditions: unstimulated SH-SY5Y; DLPC 12 μM, 24 h
Protocol: SH-SY5Y cells were incubated with DLPC (12 μM) for 24 h and APP expression was analyzed in total cell lysates by Western blotting. Histograms representing densitometry analysis of APP and the values are presented relative to total β-actin control and are expressed as mean±SEM of at least 3 independent experiments. *P<0.05 vs control.
as §4
Preparation of Phospholipid Vesicles—Phospholipid Vesicles in Phosphate-Buffered saline (PBS; 1 mg/mL) were prepared by sonication as previously described (8). […]
Western Blot Analysis—After incubation with drugs for the indicated times and doses, cells were washed twice with ice-cold PBS-T on ice. […] An equal amount of cell proteins were separated by 12% SDS-PAGE and were analyzed by Western blot using specific antibodies to TNFα, Aβ, APP, phospho-ERK1/2, ERK1/2, phospho-tau, tau, phospho-IκBα, IκBα, phospho-NF-κB and NF-κB. […] Band intensity was analyzed with the Alpha-Innotech Fluor Chem™ HD Imager.

Kupffer cells = Kupffer cells of ethanol-fed rats; cited from earlier work
amyloid-β = assay: Amyloid-β secretion into conditioned media of SH-SY5Y cells, Western blot; format: cell-based, human
Protocol: SH-SY5Y cells were pretreated with DLPC (12 μM) for 30 minutes and then incubated with LPS (100 ng/mL) for 24 h. Conditioned media from each experiment were collected and subjected to Western blot analysis for amyloid-β. Loading volumes were adjusted relative to total cell protein. Histograms representing densitometry analysis of amyloid-(3 and are expressed as mean±SEM of at least 3 independent experiments. *P<0.001 vs control and **P<0.001 vs LPS alone.
as §4, with “conditions. […]” for “conditions.”
Aβ quantification—Aβ immuno-quantification was performed in conditioned media after incubation with the inhibitors/agonists and/or phospholipids for the indicated times and doses. […] Band intensities were analyzed using the Spot-densitometer application of the AlphaEaseFC software and values were corrected with total cell proteins in cell lysates. […] Total protein concentration was determined using the BCA protein assay (Pierce, Rockford, Ill.) in cell lysate. […]

TNFα = assay: LPS-induced TNFα expression in HepG2 cells, Western blot; format: cell-based, human; conditions: DLPC 12 μmol/L 30 min, LPS 5 μg/ml, 24 h
Protocol: as §2, with “min” for “min.”, “TNFα” for “TLR-4”
as §3

NF-κB [4] = assay: LPS and TNFα induction of NF-κB in CaCO-2 cells (unpublished observations); format: cell-based; conditions: CaCO-2 cell line; unpublished observations of the inventors
IκBα [5] = assay: LPS-induced IκBα phosphorylation in HepG2 cells, Western blot; format: cell-based, human; conditions: DLPC 12 μM 30 min, LPS 5 μg/ml, 24 h
Protocol: HepG2 cells were pre-incubated with DLPC (12 μM) for 30 min. and then incubated with LPS (5 μg/ml) for 24 h in DMEM serum-depleted media. Phospho-IκBα and phospho-NF-kB (p-IκBα and p-NF-κB) expression were analyzed by Western blot. Histograms represent densitometry analysis of p-IκBα (A) and p-NF-κB (B) and values are shown relative to β-actin and are expressed as mean±SEM of 3 replicate experiments. *P<0.05 vs LPS alone.
as §3

NF-κB [6] = assay: TNFα-induced NF-κB phosphorylation in SH-SY5Y cells, Western blot; format: cell-based, human
Protocol: as §4, §5, §3
The effect of a selective MAPK inhibitor, U0126, on a TNFα induction of MAPK and nuclear factor kappa B (NF-κB) was evaluated. […] TNFα induced a 3-fold increase in NF-κB phosphorylation in SH-SY5Y cells at 5 min after treatment (FIG. 4). DLPC blocked the increase in neuronal NF-κB phosphorylation by ˜50% over 5-30 min post treatment with TNFα.

[7] = DLPC 12 μM 30 min, TNFα 10 ng/ml
[8] = inhibitor 10 μM pretreatment 30 min
[9] = 10 μM pretreatment 30 min, TNFα 10 ng/ml

CCCCC/C=C\C/C=C\CCCCCCCC(=O)OC[C@H](COP(=O)([O-])OCC[N+](C)(C)C)OC(=O)CCCCCCC/C=C\C/C=C\CCCCC [DLPC, dilinoleoylphosphatidylcholine]
IκBα degradation (IκBα [1]; DLPC 12 μM 30 min): prevented IkBα degradation | TNFα-induced IκBα phosphorylation (IκBα [1]; DLPC 12 μM 30 min): blocked TNFα-induced IkBα phosphorylation | LPS-induced increase in TLR-4 expression (TLR-4): blocks an LPS-induced increase in TLR-4 expression | LPS-induced tau phosphorylation (tau; DLPC 12 μM 30 min, LPS 100 ng/ml): blocked the effect both agonists and gave rise to tau phosphoylation levels lower than control values by 30 min | TNFα-induced tau phosphorylation (tau; [7]): blocked the effect both agonists and gave rise to tau phosphoylation levels lower than control values by 30 min | hydrogen peroxide induction of MAPK (ERK1/2; DLPC): block a hydrogen peroxide induction of MAPK | TNFα-induced ERK1/2 phosphorylation (ERK1/2; DLPC 12 μM pre-incubated 30 min): block ERK1/2 phosphorylation for 30 min | LPS-induced NF-κB phosphorylation / activation (NF-κB [2]; DLPC 12 μM 30 min, LPS 5 μg/ml, 24 h): inhibits LPS-induced IkBα and NF-κB phosphorylation after 24 h; also recorded: inhibits activation of NF-κB in HepG2 cells for up to 24 h | TNFα-induced activation of NF-κB (p-NF-κB) (NF-κB [2]): block activation of NF-κB | decrease of basal expression of amyloid precursor protein (APP) [3]: ~25% | NF-κB activation (Kupffer cells): decreases induction of TNFα secretion and NF-κB activation | induction of TNFα secretion (Kupffer cells): decreases induction of TNFα secretion | LPS-induced increase in Aβ secretion (amyloid-β; DLPC 12 μM 30 min, LPS 100 ng/mL, 24 h): completely blocked | decrease of basal secretion of Aβ (amyloid-β; DLPC 12 μM, 24 h conditioned media): 65% | LPS-induced increase in TNFα expression (TNFα): inhibits an LPS-induced increase in TNFα expression | LPS and TNFα induction of NF-κB (NF-κB [4]): can block an LPS and TNFα induction of NF-κB | LPS-induced IκBα phosphorylation (IκBα [5]): inhibits LPS-induced IkBα and NF-κB phosphorylation after 24 h | TNFα-induced NF-κB phosphorylation (NF-κB [6]; [7]): inhibited TNFα-induced NF-κB phosphorylation | block of the TNFα-induced increase in neuronal NF-κB phosphorylation (NF-κB [6]; DLPC 12 μM, 5-30 min post treatment with TNFα): ~50%

N#CC(=C(/N)Sc1ccccc1N)/C(C#N)=C(\N)Sc1ccccc1N [U0126, reference compound]
reduction of TNFα-induced IκBα phosphorylation (IκBα [1]; 10 μM pretreatment 30 min): ~50% | TNFα-induced phosphorylation of tau (AT8) (tau; U0126 10 μM pretreatment 30 min, TNFα 10 ng/ml, 5 min): completely blocked | TNFα-induced ERK1/2 phosphorylation (ERK1/2; [8]): blocked the phosphorylation of ERK1/2 | reduction of TNFα-induced NF-κB phosphorylation (NF-κB [6]; [9]): ~50%

CCCCCCCC/C=C\CCCCCCCC(=O)OC[C@H](COP(=O)([O-])OCC[N+](C)(C)C)OC(=O)CCCCCCC/C=C\CCCCCCCC [DOPC, dioleoyl phosphatidylcholine, reference compound]
TNFα-induced activation of NF-κB (p-NF-κB) (NF-κB [2]): no impact

CS/C(N)=C(C#N)/C(C#N)=C(\N)SC [U0124, reference compound]
TNFα-induced ERK1/2 phosphorylation (ERK1/2; [8]): no effect | NF-κB phosphorylation status (NF-κB [6]; [9]): no effect
